# Measurements reported in patent US20140134690A1, “MICROBES AND METHODS FOR PRODUCING 1-PROPANOL” (University of Georgia Research Foundation, Inc., priority 2012, published 2014).
# How the values were obtained:
# Test in all cases: Methylglyoxal synthase assay
# [1] = target: T1, Clostridium acetobutylicum (ATCC 824) methylglyoxal synthase (mgsA), wild type (Clostridium acetobutylicum, UniProt Q97IN6); format: biochemical, C. acetobutylicum; conditions: substrate dihydroxyacetone phosphate 0.15-1.5 mM; crude extract; pH 7.0; 30° C.
# T1 sequence (Q97IN6 1-145): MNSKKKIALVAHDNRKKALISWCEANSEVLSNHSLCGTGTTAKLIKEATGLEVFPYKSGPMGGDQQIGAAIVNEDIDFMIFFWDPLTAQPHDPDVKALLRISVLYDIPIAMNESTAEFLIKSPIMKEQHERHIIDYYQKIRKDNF
# Source text: (§1) 1,2-Propanediol pathway branches from glycolysis and competes for the intermediate dihydroxyacetone phosphate, with the glycolytic pathway. […] We amplified the mgsA genes from the microorganisms: C. acetobutylicum (ATCC#824), B. subtilis 168, C. difficile R20291, E. coli MG1655, T. thermophilus HB27, K. pneumoniae MGH78578, P. fluorescens Pf-5, and R. eutropha H16 respectively. These genes were cloned and expressed in wild type E. coli BW25113 using eight plasmids pRJ1-pRJ8. Each gene was under the control of the IPTG-inducible pLlacO1 promoter. Using dihydroxyacetone-phosphate as the substrate, we successfully detected the functional expression of all mgsA genes in vitro, where the specific activities varied from 0.0052 U/mg to 0.1242 U/mg (Table 1). […] Without the over-expression of mgsA gene, we also detected the native expression of E. coli mgsA, which gave a specific activity of only 0.0008 U/mg, much lower than that of any over-expression.
# (§2) Using the primers listed in Table 5, the mgsA genes were PCR amplified from the genomic DNA of C. acetobutylicum (ATCC824), B. subtilis 168, Clostridium difficile R20291, E. coli MG1655, Thermus thermophilus HB27, K. pneumoniae MGH78578, Pseudomonas fluorescens Pf-5, and Ralstonia eutropha H16 respectively. […]
# (§3) The assay was carried out using a two-step procedure. […] The samples were diluted 10 times before measuring the absorbance at 550 nm.
# [2] = target: T2, Bacillus subtilis 168 methylglyoxal synthase (mgsA), wild type (Bacillus subtilis, UniProt P42980); format: biochemical, B. subtilis
# T2 sequence (P42980 1-137): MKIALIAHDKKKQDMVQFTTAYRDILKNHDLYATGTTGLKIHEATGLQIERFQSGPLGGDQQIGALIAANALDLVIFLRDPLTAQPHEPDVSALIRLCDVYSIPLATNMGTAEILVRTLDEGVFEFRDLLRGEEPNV
# Source text: as §1, §2, §3
# [3] = target: Clostridium difficile R20291 methylglyoxal synthase (mgsA), wild type (Clostridioides difficile, UniProt A0A9R0BJ64); format: biochemical, C. difficile; conditions: substrate dihydroxyacetone phosphate 0.15-1.5 mM; crude extract; pH 7.0; 30° C.
# Source text: as §1, §2, §3
# [4] = target: E. coli MG1655 methylglyoxal synthase (mgsA), wild type (Escherichia coli, UniProt P0A731); format: biochemical; conditions: substrate dihydroxyacetone phosphate 0.15-1.5 mM; crude extract; pH 7.0; 30° C.
# Source text: as §1, §2, §3
# [5] = target: T3, Thermus thermophilus HB27 methylglyoxal synthase (mgsA), wild type (Thermus thermophilus, UniProt Q72HP3); format: biochemical, T. thermophilus; conditions: substrate dihydroxyacetone phosphate 0.15-1.5 mM; crude extract; pH 7.0; 30° C.
# T3 sequence (Q72HP3 1-126): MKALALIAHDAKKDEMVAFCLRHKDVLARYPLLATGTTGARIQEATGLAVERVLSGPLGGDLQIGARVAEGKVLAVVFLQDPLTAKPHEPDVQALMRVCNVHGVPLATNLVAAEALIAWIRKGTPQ
# Source text: as §1, §2, §3
# [6] = target: Klebsiella pneumoniae MGH78578 methylglyoxal synthase (mgsA), wild type (Klebsiella pneumoniae, UniProt A6T757); format: biochemical, K. pneumoniae; conditions: substrate dihydroxyacetone phosphate 0.15-1.5 mM; crude extract; pH 7.0; 30° C.
# Source text: as §1, §2, §3
# [7] = target: T4, Pseudomonas fluorescens Pf-5 methylglyoxal synthase (mgsA), wild type (Pseudomonas protegens, UniProt Q4K7S5); format: biochemical, P. fluorescens; conditions: substrate dihydroxyacetone phosphate 0.15-1.5 mM; crude extract; pH 7.0; 30° C.
# T4 sequence (Q4K7S5 1-154): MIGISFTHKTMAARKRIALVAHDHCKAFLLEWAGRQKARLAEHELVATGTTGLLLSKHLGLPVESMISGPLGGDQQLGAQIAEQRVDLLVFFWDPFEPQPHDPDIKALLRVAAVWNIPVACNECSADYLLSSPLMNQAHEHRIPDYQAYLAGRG
# Source text: as §1, §2, §3
# [8] = target: T5, Ralstonia eutropha H16 methylglyoxal synthase (mgsA), wild type (Cupriavidus necator, UniProt Q0KD43); format: biochemical, R. eutropha; conditions: substrate dihydroxyacetone phosphate 0.15-1.5 mM; crude extract; pH 7.0; 30° C.
# T5 sequence (Q0KD43 1-132): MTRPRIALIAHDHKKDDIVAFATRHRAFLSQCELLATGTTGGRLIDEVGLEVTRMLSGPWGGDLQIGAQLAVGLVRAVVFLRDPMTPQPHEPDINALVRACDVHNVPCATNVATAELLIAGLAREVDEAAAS
# Source text: as §1, §2, §3
# Chain of Clostridium difficile R20291 methylglyoxal synthase (mgsA), wild type (A0A9R0BJ64 entry or part of it): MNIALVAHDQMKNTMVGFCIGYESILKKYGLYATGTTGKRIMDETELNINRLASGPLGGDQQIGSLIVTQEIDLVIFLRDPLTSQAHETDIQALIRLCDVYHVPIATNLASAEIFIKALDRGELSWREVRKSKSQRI
# Chain of Klebsiella pneumoniae MGH78578 methylglyoxal synthase (mgsA), wild type (A6T757 6-157): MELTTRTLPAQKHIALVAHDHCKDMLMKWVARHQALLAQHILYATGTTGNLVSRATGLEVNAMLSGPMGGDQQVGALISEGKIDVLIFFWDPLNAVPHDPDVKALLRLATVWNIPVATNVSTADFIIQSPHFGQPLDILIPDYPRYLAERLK
# Chain of E. coli MG1655 methylglyoxal synthase (mgsA), wild type (P0A731 whole entry): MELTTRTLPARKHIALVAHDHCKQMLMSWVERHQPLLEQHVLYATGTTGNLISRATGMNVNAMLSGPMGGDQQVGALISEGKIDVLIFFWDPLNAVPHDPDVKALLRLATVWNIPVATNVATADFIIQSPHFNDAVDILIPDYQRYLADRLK
smiles,measurement,setting,value
O=C(CO)COP(=O)(O)O [dihydroxyacetone phosphate],Specific Activity/Km,[1],0.0697 U/mg/mM
same,Specific Activity/Km,"[2]; substrate dihydroxyacetone phosphate 0.15-1.5 mM, crude extract, pH 7.0, 30° C.",0.1186 U/mg/mM
same,ratio of specific activity/Km,[2]; substrate dihydroxyacetone-phosphate,0.1186
same,Specific Activity/Km,[3],0.0415 U/mg/mM
same,Specific Activity/Km,[4],0.0876 U/mg/mM
same,Specific Activity/Km,[5],0.0076 U/mg/mM
same,Specific Activity/Km,[6],0.0058 U/mg/mM
same,Specific Activity/Km,[7],0.0085 U/mg/mM
same,Specific Activity/Km,[8],0.0074 U/mg/mM
